What was measured:
[1] = test system: tobacco axillary bud growth; experiment: Tobacco axillary bud growth inhibition test, pot plants after top pruning, contact spray; assay type: in vivo, Nicotiana tabacum, Tsukuba 1 (flue-cured cultivar); settings: single active ingredient, 20 ml sprayed per plant, 28 days after spraying
Description: (§1) Tobacco seedlings of Tsukuba 1 (flue-cured cultivar) were transplanted to 1/5000a Wagner pots filled with Kureha garden nursery soil. The plants were grown in a glasshouse, and the floral axis parts were removed at the time of single-flower bloom of tobacco (top pruning).
(§2) Samples were prepared by diluting the above-mentioned formulation containing 10% of chlorthal-dimethyl with water to predetermined concentrations, and adding thereto the formulation containing 70% of decyl alcohol so as to make each sample have a predetermined concentration, and subjected to the test (Examples 1 to 6). Samples were also prepared by diluting the formulation containing 10% of chlorthal-dimethyl with water to predetermined concentrations, and adding thereto the formulation containing 70% of 2-ethyl hexanol so as to make each sample have a predetermined concentration, and subjected to the test (Examples 7 to 12). Samples were also prepared by diluting the formulation containing 10% of chlorthal-dimethyl with water to predetermined concentrations, and adding thereto the formulation containing 70% of […] so as to make each sample have a predetermined concentration, and subjected to the test (Examples 13 to 18). Furthermore, as Comparative Examples, samples were prepared by diluting samples were also prepared by diluting the formulation containing 10% of chlorthal-dimethyl with water to predetermined concentrations (Comparative Examples 1 to 4), by diluting the formulation containing 70% of decyl alcohol with water to predetermined concentrations (Comparative Examples 5 to 7), and by diluting the formulation containing 70% of […] with water to predetermined concentrations (Comparative Examples 8 to 10), and by diluting the formulation containing 70% of […] with water to predetermined concentrations (Comparative Examples 11 to 13) to be subjected to the test. In addition, butralin (tradename: Blue Ribbon) (Comparative Example 14) was subjected to the test.
(§3) With respect to each of the formulations of the inhibitors for tobacco axillary bud growth, 20 ml of the water-diluted solutions of the respective inhibitors were separately sprayed using a contact-type axillary bud inhibitor spraying instrument equipped with a spot exhaust nozzle. One tobacco plant was planted per pot, and the tests were carried out in duplicate.
For the respective cases, states of inhibition of axillary bud growth 28 days after the spraying were investigated together with untreated groups sprayed with no inhibitor, and axillary bud growth inhibition rates were calculated by the following equation. Axillary bud growth inhibition rate=(fresh weight of axillary buds per plant of untreated group−fresh weight of axillary buds per plant of treated group)÷(fresh weight of axillary buds per plant of untreated group)×100 [Math. 1]
It should be noted that the values in parentheses in Table 1 represent predicted values of the effects of inhibiting axillary bud growth of mixed agents (that is, compounds mixed as active ingredients), that is, expected values of additive effects. The expected values were calculated by the following Colby's equation (Colby. S. R.; “Calculating Synergistic and Antagonistic Responses of Herbicide Combinations” Weed, Vol. 15(1), 20-22, 1967). Colby's equation: E=x+y−x·y/100 [Math. 2]
E: Axillary bud growth inhibition rate in the case of using a mixture of active compound A (concentration a) and active compound B (concentration b) (theoretical axillary bud growth inhibition rate)
x: Axillary bud growth inhibition rate in the case of using active compound A at concentration a
y: Axillary bud growth inhibition rate in the case of using active compound B at concentration b
In the case where a measured value determined in the above-mentioned test (axillary bud growth inhibition rate) was larger than the expected value, a synergetic effect was expressed on activity to suppress axillary bud growth.

[2] = test system: tobacco leaves (first to fourth leaves from the top); experiment: Harmful effect of the inhibitor on tobacco leaves (growth inhibition, gangrene, change in color, deformation); assay type: in vivo, Nicotiana tabacum, Tsukuba 1 (flue-cured cultivar)
Description: as §1, §2, §3
Further, the presence or absence of the harmful effect of each inhibitor was evaluated in one of the following four categories depending on the degrees of growth inhibition, gangrene, change in color, deformation and the like of leaves (first to fourth leaves from the top).
Large: A severely harmful effect was observed.
Middle: A clearly harmful effect was observed.
Small: A slightly harmful effect was observed.
Absent: No harmful effect was observed.

Which “Axillary bud growth inhibition (%)” value ([1]; concentration 0.002 %) does the source give for `COC(=O)c1c(Cl)c(Cl)c(C(=O)OC)c(Cl)c1Cl` [Comparative Ex. 1, dimethyl tetrachloroterephthalate] here?
The value was 1.1%.

What about the Harmful effect ([2]; in vivo) of the same compound?
The Harmful effect was “None”.

How did the “Axillary bud growth inhibition (%)” value ([1]; concentration 0.005 %) turn out when `COC(=O)c1c(Cl)c(Cl)c(C(=O)OC)c(Cl)c1Cl` [Comparative Ex. 2, dimethyl tetrachloroterephthalate] was run?
Its value is 4.2%.

What about the Harmful effect ([2]; in vivo) of the same compound?
The Harmful effect was “None”.

Which “Axillary bud growth inhibition (%)” value ([1]; concentration 0.01 %) does the source give for `COC(=O)c1c(Cl)c(Cl)c(C(=O)OC)c(Cl)c1Cl` [Comparative Ex. 3, dimethyl tetrachloroterephthalate] here?
The value was 23.4%.

And the Harmful effect ([2]; in vivo)?
The Harmful effect was “None”.

`COC(=O)c1c(Cl)c(Cl)c(C(=O)OC)c(Cl)c1Cl` [Comparative Ex. 4, dimethyl tetrachloroterephthalate] was tested. Which “Axillary bud growth inhibition (%)” value ([1]; concentration 1 %) did it give?
The value was 100%.

What about the Harmful effect ([2]; in vivo) of the same compound?
Its Harmful effect is “None”.

Which “Axillary bud growth inhibition (%)” value ([1]; concentration 0.7 %) does the source give for `CCCCCCCCCCO` [Comparative Ex. 5, Decyl alcohol] here?
The value was 41.4%.

What about the Harmful effect ([2]; in vivo) of the same compound?
The Harmful effect was “None”.

Which “Axillary bud growth inhibition (%)” value ([1]; concentration 1.4 %) does the source give for `CCCCCCCCCCO` [Comparative Ex. 6, Decyl alcohol] here?
The value was 68.6%.

What about the Harmful effect ([2]; in vivo) of the same compound?
Its Harmful effect is “None”.

`CCCCCCCCCCO` [Comparative Ex. 7, Decyl alcohol] was tested. Which “Axillary bud growth inhibition (%)” value ([1]; concentration 2.6 %) did it give?
The value was 86.8%.

Which “Axillary bud growth inhibition (%)” value ([1]; concentration 0.7 %) does the source give for `CCCCC(CC)CO` (stereo not drawn) [Comparative Ex. 8, 2-ethyl hexanol] here?
Its value is 33.1%.

And the Harmful effect ([2]; in vivo)?
The Harmful effect was “None”.

How did the “Axillary bud growth inhibition (%)” value ([1]; concentration 1.4 %) turn out when `CCCCC(CC)CO` (stereo not drawn) [Comparative Ex. 9, 2-ethyl hexanol] was run?
Its value is 66.6%.

And the Harmful effect ([2]; in vivo)?
Its Harmful effect is “None”.

How did the “Axillary bud growth inhibition (%)” value ([1]; concentration 2.6 %) turn out when `CCCCC(CC)CO` (stereo not drawn) [Comparative Ex. 10, 2-ethyl hexanol] was run?
The value was 82.1%.

What does the source list for `CC(C)=CCC/C(C)=C/CO` [Comparative Ex. 11, Geraniol]?
Axillary bud growth inhibition (%) ([1]; concentration 0.7 %): 52.1%; Harmful effect ([2]; single active ingredient, concentration 0.7 %, 20 ml sprayed per plant): None

For `CC(C)=CCC/C(C)=C/CO` [Comparative Ex. 12, Geraniol], which “Axillary bud growth inhibition (%)” value ([1]; concentration 1.4 %) is on record?
The value was 72.5%.

And the Harmful effect ([2]; single active ingredient, concentration 1.4 %, 20 ml sprayed per plant)?
The Harmful effect was “None”.

For `CC(C)=CCC/C(C)=C/CO` [Comparative Ex. 13, Geraniol], which “Axillary bud growth inhibition (%)” value ([1]; concentration 2.6 %) is on record?
Its value is 87.9%.

What about the Harmful effect ([2]; single active ingredient, concentration 2.6 %, 20 ml sprayed per plant) of the same compound?
Its Harmful effect is “Medium degree”.

What about the Harmful effect ([2]; single active ingredient, concentration 2.6 %, 20 ml sprayed per plant, listed as Comparative Example 13) of the same compound?
Its Harmful effect is “small or medium degree”.

Which results are given for `CCC(C)Nc1c([N+](=O)[O-])cc(C(C)(C)C)cc1[N+](=O)[O-]` (stereo not drawn) [Comparative Ex. 14, Butralin]?
Axillary bud growth inhibition (%) ([1]; concentration 0.35 %): 98.2%; Harmful effect ([2]; in vivo): Small degree
